These results are taken from patent US9394305B2, “Substituted imidazo[1,2-a]pyridine compounds as tropomyosin receptor kinase a (TrkA) inhibitors” (Dr. Reddy's Laboratories Ltd., priority 2014, dated 2016).

A word on the IC50: it is the point on the concentration scale where inhibition reaches its midpoint.

This assay deals with T1, TrkA kinase (Homo sapiens, UniProt P04629).
T1 construct: purchased Upstate, USA
T1 sequence (P04629 33-796): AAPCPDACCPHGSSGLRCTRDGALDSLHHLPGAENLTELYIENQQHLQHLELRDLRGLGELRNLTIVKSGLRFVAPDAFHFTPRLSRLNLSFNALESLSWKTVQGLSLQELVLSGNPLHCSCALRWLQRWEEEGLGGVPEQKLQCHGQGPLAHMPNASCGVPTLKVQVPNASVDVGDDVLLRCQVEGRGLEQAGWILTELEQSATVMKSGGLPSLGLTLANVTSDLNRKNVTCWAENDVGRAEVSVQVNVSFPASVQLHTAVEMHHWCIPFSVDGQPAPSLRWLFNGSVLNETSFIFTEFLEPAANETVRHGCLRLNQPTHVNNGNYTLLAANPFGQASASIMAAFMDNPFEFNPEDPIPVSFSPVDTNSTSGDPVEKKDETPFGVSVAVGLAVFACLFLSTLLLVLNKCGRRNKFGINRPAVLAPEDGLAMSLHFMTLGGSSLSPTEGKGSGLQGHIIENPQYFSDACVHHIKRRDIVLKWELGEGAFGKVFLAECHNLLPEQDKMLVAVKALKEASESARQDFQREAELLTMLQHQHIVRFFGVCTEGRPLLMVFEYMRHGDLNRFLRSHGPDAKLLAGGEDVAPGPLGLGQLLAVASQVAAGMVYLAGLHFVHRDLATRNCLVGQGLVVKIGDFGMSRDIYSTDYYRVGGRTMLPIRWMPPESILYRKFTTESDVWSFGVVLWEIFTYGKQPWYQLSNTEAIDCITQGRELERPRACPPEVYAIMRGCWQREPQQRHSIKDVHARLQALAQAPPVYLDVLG
The assay is described as follows: In vitro TrkA inhibitory activity using TR-FRET assay. Format: biochemical. Particulars: 5 ng TrkA, 500 μM ATP, values given as bins, read-out: TrkA inhibition in-vitro IC50. The method, then: Compounds were screened in the TR-FRET assay with TrkA kinase. 5 ng of TrkA [Upstate, USA] kinase was used for assay. The compound was incubated with the kinase for 30 minutes at 20-35° C. After the incubation, substrate mix [40 nM Ultra light poly GT (Perkin Elmer, USA) and 500 μM ATP] was added. The above reaction was stopped by the addition of 40 mM EDTA after 30 minutes. The Eu-labelled antiphospho-tyrosine antibody [Perkin Elmer, USA] was added at 0.5 nM and the fluorescence emission at 615 nm/665 nm [excitation at 340 nm] was measured. The compounds were initially screened at 100 nM, 1 μM and 10 μM concentrations. The potent compounds with >25% inhibition at 1 μM of TrkA were taken for the full dose response studies. The final DMSO concentration in the assay was […]. For IC50 determination, ⅓^rd serial dilution was made from the 20 mM DMSO stock solution. 2 μl of these were transferred to the test wells containing 20 μl reaction mixture [Total reaction volume 22 μl]. The fluorescence was measured in Perkin Elmer Wallac 1420 Multilabel Counter Victor 3. The IC50 was determined by fitting the dose response data to a sigmoidal curve fitting equation using GraphPad Prism software version 5.
On the technique in general: Time-resolved FRET reads energy transfer from a long-lived donor to a nearby acceptor.
On to `O=C(NS(=O)(=O)c1ccc(N2CC[C@H](O)C2)nc1)c1cnc2ccc(N3CCC[C@@H]3c3cc(F)ccc3F)cn12` [Example 33, 6-((R)-2-(2,5-difluorophenyl)pyrrolidin-1-yl)-N-((6-((S)-3-hydroxypyrrolidin-1-yl)pyridin-3-yl)sulfonyl)imidazo[1,2-a]pyridine-3-carboxamide], for which the IC50 fell in the range of 100 to 500 nM.

Turning to `CCN(C)S(=O)(=O)NC(=O)c1cnc2ccc(N3CCC[C@@H]3c3cc(F)ccc3F)cn12` [Example 34, (R)-6-(2-(2,5-difluorophenyl)pyrrolidin-1-yl)-N-(N-ethyl-N-methylsulfamoyl)imidazo[1,2-a]pyridine-3-carboxamide], the IC50 is no more than 50 nM.

Turning to `O=C(NS(=O)(=O)c1ccc(-n2cncn2)cc1)c1cnc2ccc(N3CCC[C@@H]3c3cc(F)ccc3F)cn12` [Example 35, (R)-N-((4-(1H-1,2,4-triazol-1-yl)phenyl)sulfonyl)-6-(2-(2,5-difluorophenyl)pyrrolidin-1-yl)imidazo[1,2-a]pyridine-3-carboxamide], the concentration for half-maximal inhibition (IC50) lay in the range of 50 to 100 nM.

`O=C(NS(=O)(=O)c1ccc(N2CC[C@H](O)C2)cc1)c1cnc2ccc(N3CCC[C@@H]3c3cc(F)ccc3F)cn12` [Example 36, 6-((R)-2-(2,5-difluorophenyl)pyrrolidin-1-yl)-N-((4-((S)-3-hydroxypyrrolidin-1-yl)phenyl)sulfonyl)imidazo[1,2-a]pyridine-3-carboxamide]: the IC50 was 100 to 500 nM.

For `CCCN(C)S(=O)(=O)NC(=O)c1cnc2ccc(N3CCC[C@@H]3c3cc(F)ccc3F)cn12` [Example 37, (R)-6-(2-(2,5-difluorophenyl)pyrrolidin-1-yl)-N-(N-methyl-N-propylsulfamoyl)imidazo[1,2-a]pyridine-3-carboxamide], the IC50 is no more than 50 nM.

For `CN(CCF)S(=O)(=O)NC(=O)c1cnc2ccc(N3CCC[C@@H]3c3cc(F)ccc3F)cn12` [Example 38, (R)-6-(2-(2,5-difluorophenyl)pyrrolidin-1-yl)-N-(N-(2-fluoroethyl)-N-methylsulfamoyl)imidazo[1,2-a]pyridine-3-carboxamide], the IC50 was no more than 50 nM.

Consider `COCCN(C)S(=O)(=O)NC(=O)c1cnc2ccc(N3CCC[C@@H]3c3cc(F)ccc3F)cn12` [Example 39, (R)-6-(2-(2,5-difluorophenyl)pyrrolidin-1-yl)-N-(N-(2-methoxyethyl)-N-methylsulfamoyl)imidazo[1,2-a]pyridine-3-carboxamide], for which the IC50 was no more than 50 nM.

In the case of `CCN(CCF)S(=O)(=O)NC(=O)c1cnc2ccc(N3CCC[C@@H]3c3cc(F)ccc3F)cn12` [Example 40, (R)-6-(2-(2,5-difluorophenyl)pyrrolidin-1-yl)-N-(N-ethyl-N-(2-fluoroethyl)sulfamoyl)imidazo[1,2-a]pyridine-3-carboxamide], the IC50 lay within 50 to 100 nM.

Turning to `CN(CC(F)(F)F)S(=O)(=O)NC(=O)c1cnc2ccc(N3CCC[C@@H]3c3cc(F)ccc3F)cn12` [Example 41, (R)-6-(2-(2,5-difluorophenyl)pyrrolidin-1-yl)-N-(N-methyl-N-(2,2,2-trifluoroethyl)sulfamoyl)imidazo[1,2-a]pyridine-3-carboxamide], the IC50 was no more than 50 nM.

`CN(CC(C)(C)F)S(=O)(=O)NC(=O)c1cnc2ccc(N3CCC[C@@H]3c3cc(F)ccc3F)cn12` [Example 42, (R)-6-(2-(2,5-difluorophenyl)pyrrolidin-1-yl)-N-(N-(2-fluoro-2-methylpropyl)-N-methylsulfamoyl)imidazo[1,2-a] pyridine-3-carboxamide]: the IC50 is no more than 50 nM.

In the case of `CN(c1cccnc1)S(=O)(=O)NC(=O)c1cnc2ccc(N3CCC[C@@H]3c3cc(F)ccc3F)cn12` [Example 43, (R)-6-(2-(2,5-difluorophenyl)pyrrolidin-1-yl)-N-(N-methyl-N-(pyridin-3-yl)sulfamoyl)imidazo[1,2-a]pyridine-3-carboxamide], the IC50 is no more than 50 nM.
